Columns and labels:
[1] = system: Mamestra brassicae larvae; assay: Injection bioassay with Mamestra brassicae larvae; type: in vivo; conditions: injection at up to 40 μg/insect
Method: 3rd-5th instar Mamestra brassicae larvae (approximately 30-55 mg in weight) were used for injection bioassays. Larvae were injected with varying doses of Hv1a, pro-Hv1a, pro-Hv1a/GNA, PI1a, Ao1bProPI1a, PI1a/GNA, Ao1bPro-PI1a/GNA, or Hv1aPro-PI1a/GNA (n=20 per dose) in 5 μl of PBS (phosphate buffered saline; 0.15 M NaCl, 0.015 M sodium-phosphate buffer, pH 7.2). Larvae for controls were injected with 5 μl 1×PBS. Paralysis and mortality was recorded 12-96 h after injection.

[2] = system: Mamestra brassicae larvae; assay: Droplet-feeding (oral) assay with Mamestra brassicae larvae; type: in vivo
Method: Droplet-feeding assays were carried out to assess the oral activity of Hv1a/GNA, pro-Hv1a/GNA, PI1a, Ao1bProPI1a, PI1a/GNA, Ao1bPro-PI1a/GNA, or Hv1aPro-PI1a/GNA towards third to fifth instar larvae of M. brassicae. Larvae were starved for approximately 24 h before feeding in order to encourage droplet consumption. Larvae were fed with a 2 μl droplet containing 20 μg of the above fusion proteins, 30 μg of toxins or 30 μg of GNA, in 1×PBS solution containing 10% sucrose (w/w). Control larvae were fed on PBS/sucrose droplets containing no added protein. Treated larvae were placed on standard artificial diet after consumption of the droplet.

Spodoptera sp. = conditions: native PI1a, literature value; cited from earlier work
[3] = system: invertebrate calcium channels; conditions: cited from earlier work
[4] = system: vertebrate calcium channels; conditions: cited from earlier work

## snowdrop lectin (GNA)
[1]
  mortality: do not result in mortality
[2]; 30 μg control treatments, 3rd stadium
  reductions in survival: 0-20%
[2]; single 2 μl droplet containing 20 μg, third instar
  mortality after 5 days: 20%

## δ-amaurobitoxin-PI1a [Pl1a (literature)]
Spodoptera sp.
  LD50: 9.5 µg/g

## ω-ACTX-Hv1a [Hv1a (literature)]
[3]
  block of invertebrate calcium channels: block invertebrate
[4]
  block of vertebrate calcium channels: not vertebrate
